According to US20100063047A1 (KALYPSYS, INC., priority 2008, published 2010):

Legend:
human H4 = molecular target: T1, human H4 (Homo sapiens, UniProt Q9H3N8); test: In vitro histamine H4 receptor cell-based aequorin bioluminescence antagonist assay; conditions: CHO-K1 cells expressing human H4, aequorin and Gα16; histamine at EC80
T1 construct: host or cells: CHO-K1, also expressing mitochondrion-targeted aequorin and human Gα16
Protocol: In vitro Histamine Receptor Cell-Based Assays
The cell-based assays utilize an aequorin dependent bioluminescence signal. Doubly-transfected, stable CHO—K1 cell lines expressing human H1 or H4, mitochondrion-targeted aequorin, and (H4 only) human G protein Gα16 are obtained from Perkin-Elmer. Cells are maintained in F12 (Ham's) growth medium, containing 10% (vol./vol.) fetal bovine serum, penicillin (100 IU/mL), streptomycin (0.1 mg/mL), zeocin (0.25 mg/mL) and geneticin (0.40 mg/mL). Cell media components are from Invitrogen, Inc. One day prior to assay, the growth medium is replaced with the same, excluding zeocin and geneticin.
For assay preparation, growth medium is aspirated, and cells are rinsed with calcium-free, magnesium-free phosphate-buffered saline, followed by two to three minute incubation in Versene (Invitrogen, Inc.) at 37° C. Assay medium (DMEM:F12 [50:50], phenol-red free, containing 1 mg/mL protease-free bovine serum albumin) is added to collect the released cells, which are then centrifuged. The cell pellet is re-suspended in assay medium, centrifuged once more, and re-suspended in assay medium to a final density of 5×10^6 cells/mL. Coelenterazine-h dye (500 μM in ethanol) is added to a final concentration of 5 μM, and mixed immediately. The conical tube containing the cells is then wrapped with foil to protect the light-sensitive dye. The cells are incubated for four hours further at room temperature (approximately 21° C.) with end-over-end rotation to keep them in suspension.
Just before assay, the dye-loaded cells are diluted to 0.75×10^6 cells/mL (H1 receptor) or 1.5×10^6 cells/mL (H4 receptor) with additional assay medium. Cells are dispensed to 1536 well micro-titer plates at 3 μL/well. To assay receptor antagonism, 60 nl of 100× concentration test compounds in 100% dimethyl sulfoxide (DMSO) are dispensed to the wells, one compound per well, by passive pin transfer, and the plates are incubated for 15 minutes at room temperature. […] The pipette dispenses 3 μL/well of agonist (histamine, at twice the final concentration, where final concentration is a previously determined EC80) in assay medium, with concurrent bioluminescence detection. Agonist activity of test compounds is excluded by separate assays that measure response to test compounds immediately, without added histamine agonist.
CCD image capture on the Lumilux includes a 5 second baseline read prior to agonist addition, and generally a 40 second read per plate after agonist addition. A decrease in bioluminescence signal (measured either as area-under-the-curve, or maximum signal amplitude minus minimum signal amplitude) correlates with receptor antagonism in a dose dependent manner. The negative control is DMSO lacking any test compound. For antagonist assays, the positive controls are diphenhydramine (2-Diphenylmethoxy-N,N-dimethylethylamine, 10 μM final concentration, H1 receptor) or JNJ7777120 (1-[(5-Chloro-1H-indol-2-yl)carbonyl]-4-methyl-piperazine, 10 μM final concentration, H4 receptor). Efficacy is measured as a percentage of positive control activity.

human H1 = molecular target: T2, human H1 (Homo sapiens, UniProt P35367); test: In vitro histamine H1 receptor cell-based aequorin bioluminescence antagonist assay; conditions: CHO-K1 cells expressing human H1 and aequorin; histamine at EC80; read-out: H1 Antagonist EC50
T2 construct: host or cells: CHO-K1, also expressing mitochondrion-targeted aequorin
Procedure, shortened: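 CHO-K1 cells stably expressing human H1 or H4 plus mitochondrial aequorin (H4 also with Gα16), loaded with 5 μM coelenterazine-h for 4 h at ~21 °C. Compounds preincubated 15 min at room temperature, then histamine at EC80 added.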

T2 sequence (P35367 whole entry): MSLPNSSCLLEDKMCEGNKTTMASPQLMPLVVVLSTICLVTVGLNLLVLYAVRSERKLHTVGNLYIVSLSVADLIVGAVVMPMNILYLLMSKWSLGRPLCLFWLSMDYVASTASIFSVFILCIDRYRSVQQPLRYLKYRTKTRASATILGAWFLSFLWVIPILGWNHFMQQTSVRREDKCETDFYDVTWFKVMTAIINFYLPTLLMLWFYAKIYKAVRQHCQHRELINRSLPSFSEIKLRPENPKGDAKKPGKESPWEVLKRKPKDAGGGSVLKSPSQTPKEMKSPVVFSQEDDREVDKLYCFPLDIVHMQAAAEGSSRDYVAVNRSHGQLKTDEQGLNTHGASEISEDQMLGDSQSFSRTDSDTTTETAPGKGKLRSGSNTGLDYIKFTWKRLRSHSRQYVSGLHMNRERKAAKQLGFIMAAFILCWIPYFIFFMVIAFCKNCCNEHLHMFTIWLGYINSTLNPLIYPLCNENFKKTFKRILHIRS
T1 sequence (Q9H3N8 whole entry): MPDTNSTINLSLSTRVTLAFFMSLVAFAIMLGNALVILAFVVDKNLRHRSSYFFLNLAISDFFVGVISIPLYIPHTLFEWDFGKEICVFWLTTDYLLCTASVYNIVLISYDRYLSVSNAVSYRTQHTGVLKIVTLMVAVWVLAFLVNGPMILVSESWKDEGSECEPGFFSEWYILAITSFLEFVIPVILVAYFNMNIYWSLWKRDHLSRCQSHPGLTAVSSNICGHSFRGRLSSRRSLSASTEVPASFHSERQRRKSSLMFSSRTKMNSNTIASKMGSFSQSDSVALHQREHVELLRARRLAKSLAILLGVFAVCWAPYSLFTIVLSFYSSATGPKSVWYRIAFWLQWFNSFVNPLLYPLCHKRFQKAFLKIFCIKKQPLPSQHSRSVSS

C#CCN(C)c1ncnc2scc(C)c12 [Example 180, N,5-dimethyl-N-(prop-2-yn-1-yl)thieno[2,3-d]pyrimidin-4-amine]
EC50 (human H4): > 10 µM
EC50 (human H1): > 10 µM

Cc1csc2ncnc(N3CCN(c4ccccc4Cl)CC3)c12 [Example 3, 4-(4-(2-chlorophenyl)piperazin-1-yl)-5-methylthieno[2,3-d]pyrimidine]
EC50 (human H4): > 10 µM
EC50 (human H1): > 10 µM

COc1cc(CN(C)c2ncnc3scc(C)c23)cc(OC)c1OC [Example 276, N,5-dimethyl-N-[(3,4,5-trimethoxyphenyl)methyl]thieno[2,3-d]pyrimidin-4-amine]
EC50 (human H4): > 10 µM
EC50 (human H1): > 10 µM

COc1cc2c(cc1OC)CN(c1ncnc3scc(C)c13)CC2 [Example 286, 6,7-dimethoxy-2-{5-methylthieno[2,3-d]pyrimidin-4-yl}-1,2,3,4-tetrahydroisoquinoline]
EC50 (human H4): > 10 µM
EC50 (human H1): > 10 µM

COc1ccc(Nc2ncnc3scc(C)c23)cc1OC [Example 147, N-(3,4-dimethoxyphenyl)-5-methylthieno[2,3-d]pyrimidin-4-amine]
EC50 (human H4): > 10 µM
EC50 (human H1): > 10 µM

Cc1csc2ncnc(CCNc3ccc(Cl)cc3)c12 [Example 32, 4-chloro-N-(2-(5-methylthieno[2,3-d]pyrimidin-4-yl)ethyl)aniline]
EC50 (human H4): > 10 µM
EC50 (human H1): > 10 µM

Cc1csc2ncnc(CNCc3ccc(Cl)cc3)c12 [Example 35, N-(4-chlorobenzyl)-1-(5-methylthieno[2,3-d]pyrimidin-4-yl)methanamine]
EC50 (human H4): > 10 µM
EC50 (human H1): > 10 µM

Cc1csc2ncnc(N3CCN(c4ccc(C#N)cn4)CC3)c12 [Example 253, 6-(4-{5-methylthieno[2,3-d]pyrimidin-4-yl}piperazin-1-yl)pyridine-3-carbonitrile]
EC50 (human H4): > 10 µM

Cc1ccc(Cl)cc1N1CCN(c2ncnc3scc(C)c23)CC1 [Example 275, 1-(5-chloro-2-methylphenyl)-4-{5-methylthieno[2,3-d]pyrimidin-4-yl}piperazine]
EC50 (human H4): > 10 µM
EC50 (human H1): > 10 µM

Cc1csc2ncnc(N(C)CC(O)c3ccc(O)cc3)c12 (centres unmarked) [Example 238, 4-{1-hydroxy-2-[methyl({5-methylthieno[2,3-d]pyrimidin-4-yl})amino]ethyl}phenol]
EC50 (human H4): > 10 µM
EC50 (human H1): > 10 µM

CN1CCC(N(C)c2ncnc3scc(-c4ccc(Br)cc4)c23)CC1 [Example 13, 5-(4-bromophenyl)-N-methyl-N-(1-methylpiperidin-4-yl)thieno[2,3-d]pyrimidin-4-amine]
EC50 (human H4): > 10 µM

Cc1csc2ncnc(NCCO)c12 [Example 56, 2-({5-methylthieno[2,3-d]pyrimidin-4-yl}amino)ethan-1-ol]
EC50 (human H4): > 10 µM
EC50 (human H1): > 10 µM

CCN(c1ncnc2scc(C)c12)C1CCCCC1 [Example 210, N-cyclohexyl-N-ethyl-5-methylthieno[2,3-d]pyrimidin-4-amine]
EC50 (human H4): > 10 µM
EC50 (human H1): > 10 µM

Cc1csc2ncnc(N3C(C)CCCC3C)c12 (centres unmarked) [Example 201, 2,6-dimethyl-1-{5-methylthieno[2,3-d]pyrimidin-4-yl}piperidine]
EC50 (human H4): > 10 µM
EC50 (human H1): > 10 µM

Cc1csc2ncnc(NCCN3CCCCC3)c12 [Example 107, 5-methyl-N-[2-(piperidin-1-yl)ethyl]thieno[2,3-d]pyrimidin-4-amine]
EC50 (human H4): > 10 µM
EC50 (human H1): > 10 µM

CNc1ncnc2scc(C)c12 [Example 49, N,5-dimethylthieno[2,3-d]pyrimidin-4-amine]
EC50 (human H4): > 10 µM
EC50 (human H1): > 10 µM

CCCN(C)c1ncnc2scc(C)c12 [Example 182, N,5-dimethyl-N-propylthieno[2,3-d]pyrimidin-4-amine]
EC50 (human H4): > 10 µM
EC50 (human H1): > 10 µM

Cc1csc2ncnc(NCCCN3CCCC3=O)c12 [Example 132, 1-[3-({5-methylthieno[2,3-d]pyrimidin-4-yl}amino)propyl]pyrrolidin-2-one]
EC50 (human H4): > 10 µM
EC50 (human H1): > 10 µM

Cc1csc2ncnc(N3CCC(N(C)C)C3)c12 (centres unmarked) [Example 202, N,N-dimethyl-1-{5-methylthieno[2,3-d]pyrimidin-4-yl}pyrrolidin-3-amine]
EC50 (human H4): > 10 µM

Cc1csc2ncnc(N3CCN(c4ccc(Cl)cc4)CC3)c12 [Example 266, 1-(4-chlorophenyl)-4-{5-methylthieno[2,3-d]pyrimidin-4-yl}piperazine]
EC50 (human H4): > 10 µM

c1ccc(CN2CCN(c3ncnc4sc5c(c34)CCCC5)CC2)cc1 [Example 12, 4-(4-benzylpiperazin-1-yl)-5,6-tetrahydrobenzo[b]thiophenethieno[2,3-d]pyrimidine]
EC50 (human H4): > 10 µM

Cc1csc2ncnc(N(C)CCc3ccccn3)c12 [Example 220, N,5-dimethyl-N-[2-(pyridin-2-yl)ethyl]thieno[2,3-d]pyrimidin-4-amine]
EC50 (human H4): > 10 µM

Cc1ccc(C)c(N2CCN(c3ncnc4scc(C)c34)CC2)c1 [Example 259, 1-(2,5-dimethylphenyl)-4-{5-methylthieno[2,3-d]pyrimidin-4-yl}piperazine]
EC50 (human H4): > 10 µM

CCCC(C)Nc1ncnc2scc(C)c12 (centres unmarked) [Example 66, 5-methyl-N-(pentan-2-yl)thieno[2,3-d]pyrimidin-4-amine]
EC50 (human H1): > 10 µM

Fc1ccccc1CCNc1ncnc2sc3c(c12)CCCC3 [Example 42, N-[2-(2-fluorophenyl)ethyl]-8-thia-4,6-diazatricyclo[7.4.0.0^{2,7}]trideca-1(9),2(7),3,5-tetraen-3-amine]
EC50 (human H1): > 10 µM

COCC(C)Nc1ncnc2scc(C)c12 (centres unmarked) [Example 71, N-(1-methoxypropan-2-yl)-5-methylthieno[2,3-d]pyrimidin-4-amine]
EC50 (human H1): > 10 µM

COCC(C)n1c(C)cc(C(=O)CSc2ncnc3sc(C)c(C)c23)c1C (centres unmarked) [Example 303, 2-(5,6-dimethylthieno[2,3-d]pyrimidin-4-ylthio)-1-(1-(1-methoxypropan-2-yl)-2,5-dimethyl-1H-pyrrol-3-yl)ethanone]
EC50 (human H1): > 10 µM

CC(=O)c1c(C)[nH]c(C(=O)CSc2ncnc3sc(C)c(C)c23)c1C [Example 304, 1-(4-acetyl-3,5-dimethyl-1H-pyrrol-2-yl)-2-(5,6-dimethylthieno[2,3-d]pyrimidin-4-ylthio)ethanone]
EC50 (human H1): > 10 µM

COc1cc(CNc2ncnc3scc(C)c23)cc(OC)c1 [Example 159, N-[(3,5-dimethoxyphenyl)methyl]-5-methylthieno[2,3-d]pyrimidin-4-amine]
EC50 (human H1): > 10 µM

Cc1ccc(CNc2ncnc3scc(C)c23)cc1C [Example 118, N-[(3,4-dimethylphenyl)methyl]-5-methylthieno[2,3-d]pyrimidin-4-amine]
EC50 (human H1): > 10 µM

Cc1csc2ncnc(NC(=O)Cc3ccc(Cl)cc3)c12 [Example 31, 2-(4-chlorophenyl)-N-(5-methylthieno[2,3-d]pyrimidin-4-yl)acetamide]
EC50 (human H1): > 10 µM

Cc1csc2ncnc(N(CCO)Cc3ccccc3)c12 [Example 226, 2-[benzyl({5-methylthieno[2,3-d]pyrimidin-4-yl})amino]ethan-1-ol]
EC50 (human H1): > 10 µM

CCCCN(C)c1ncnc2scc(C)c12 [Example 187, N-butyl-N,5-dimethylthieno[2,3-d]pyrimidin-4-amine]
EC50 (human H1): > 10 µM

Cc1csc2ncnc(N3CCN(c4ccccc4C#N)CC3)c12 [Example 252, 2-(4-{5-methylthieno[2,3-d]pyrimidin-4-yl}piperazin-1-yl)benzonitrile]
EC50 (human H1): > 10 µM
